Results on twelve compounds are retold here after US20240166646A1, “1H-PYRROLO[2,3-B]PYRIDINE DERIVATIVES AS BCL-2 INHIBITORS FOR THE TREATMENT OF NEOPLASTIC AND AUTOIMMUNE DISEASES” (Newave Pharmaceutical Inc., priority 2020, published 2024).

The test system of experiment [1] is BCL-2-dependent acute lymphoblastic leukemia (ALL) cell line RS4; 11 with G101V mutation. In words: In vitro anti-proliferation assay (ATPlite) in RS4; 11 with G101V mutation. It is filed as cell-based. The conditions noted are these: about 72 hours incubation, medium with 5% FBS or 10% normal human serum, ATPlite luminescence. The protocol:
Cell antiproliferation was assayed by PerkinElmer ATPlite™ Luminescence Assay System. Briefly, the various test cancer cell lines were plated at a density of about 1×10^4 cells per well in Costar 96-well plates, and were incubated with different concentrations of compounds for about 72 hours in medium supplemented with 5% FBS or 10% normal human serum (NHS). One lyophilized substrate solution vial was then reconstituted by adding 5 mL of substrate buffer solution, and was agitated gently until the solution was homogeneous. About 50 μL of mammalian cell lysis solution was added to 100 μL of cell suspension per well of a microplate, and the plate was shaken for about five minutes in an orbital shaker at ˜700 rpm. This procedure was used to lyse the cells and to stabilize the ATP. Next, 50 μL substrate solution was added to the wells and microplate was shaken for five minutes in an orbital shaker at ˜700 rpm. Finally, the luminescence was measured by a PerkinElmer TopCount® Microplate Scintillation Counter. Such assays, carried out with a range of doses of test compounds, allowed the determination of the cellular anti-antiproliferative IC50 of the compounds of the present invention.
In general terms: In ATP-based viability assays light output follows the ATP content of the culture.

The target in a further experiment is Bcl-2 (Homo sapiens (Human), UniProt P10415). The experiment is described as follows: Bcl-2 competition binding (fluorescence polarization) assay. The conditions noted are these: fluorescein labeled BH3 peptide 15 nM, Bcl-2 protein 30 nM, 3 hours of incubation at room temperature. The protocol: Biological Example 1: Bcl-2 Competition Binding (Fluorescence Polarization) Assay
The fluorescence-labeled 23 amino acid peptide BH3 was purchased from CalBiochem ([…]). […] This binding assay was performed in 96-well plate and with each assay contained 15 and 30 nM of labeled peptide and purified Bcl-2 protein (purchased from R&D Systems, Inc). The assay buffer contained 20 mM Hepes (pH 7.0), 50 mM KCl, 5 mM MgCl2, 20 mM Na2MoO4, 0.1 mg/mi Bovine Gamma Globulin and 0.01% NP40. Compounds were diluted in DMS0 and added to the final assay with concentration range from 20 μM to 2 nM. The polarization degree (mP) value was determined by BioTek Synergy II with background subtraction after 3 hours of incubation at room temperature. IC50 was calculated using Prism software with sigmoidal dose-response curve fitting. ABT-737 was used as reference compound. Such assays, carried out with a range of doses of test compounds, allowed the determination of an approximate IC50 value.
(Fluorescence polarisation rises when a labelled molecule tumbles more slowly, as on binding a larger partner.)

Counter-ions that a name gives are not always drawn.

Chain of Bcl-2 (P10415 whole entry): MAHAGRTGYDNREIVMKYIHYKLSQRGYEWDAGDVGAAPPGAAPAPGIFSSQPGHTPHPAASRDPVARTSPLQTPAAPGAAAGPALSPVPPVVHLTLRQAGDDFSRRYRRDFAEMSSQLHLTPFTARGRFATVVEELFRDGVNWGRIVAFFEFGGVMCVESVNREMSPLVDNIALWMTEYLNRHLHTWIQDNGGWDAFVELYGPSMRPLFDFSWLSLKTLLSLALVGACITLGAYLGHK

As to `CCc1ccccc1[C@@H]1CCCN1C1CC2(CCN(c3ccc(C(=O)NS(=O)(=O)c4ccc(NCC5CCOCC5)c([N+](=O)[O-])c4)c(N4c5cc6cc[nH]c6nc5O[C@@H]5COC[C@H]54)c3)CC2)C1` [Example 7, 2-[(11R,15S)-13,16-dioxa-2,4,10-triazatetracyclo[7.7.0.0^{3,7}.0^{11,15}]hexadeca-1(9),2,5,7-tetraen-10-yl]-4-{2-[(2S)-2-(2-ethylphenyl)pyrrolidin-1-yl]-7-azaspiro[3.5]nonan-7-yl}-N-{3-nitro-4-[(oxan-4-ylmethyl)amino]benzenesulfonyl}benzamide hydrochloride], the figures for the IC50 (in experiment [1]; at Bcl-2) were 11.5 nM and 0.066 nM, respectively.

As to `O=C(NS(=O)(=O)c1ccc(NCC2CCOCC2)c([N+](=O)[O-])c1)c1ccc(N2CCC3(CC2)CC(N2CCC[C@H]2c2ccccc2C2CC2)C3)cc1N1c2cc3cc[nH]c3nc2O[C@@H]2COC[C@H]21` [Example 8, 4-{2-[(2S)-2-(2-cyclopropylphenyl)pyrrolidin-1-yl]-7-azaspiro[3.5]nonan-7-yl}-2-[(11R,15S)-13,16-dioxa-2,4,10-triazatetracyclo[7.7.0.0^{3,7}.0^{11,15}]hexadeca-1(9),2,5,7-tetraen-10-yl]-N-{3-nitro-4-[(oxan-4-ylmethyl)amino]benzenesulfonyl}benzamide hydrochloride], the IC50 (in general, the midpoint of a concentration-inhibition curve) in experiment [1] was 9.1 nM; at Bcl-2, 0.066 nM.

Take `CNc1ccccc1[C@@H]1CCCN1C1CC2(CCN(c3ccc(C(=O)NS(=O)(=O)c4ccc(NCC5CCOCC5)c([N+](=O)[O-])c4)c(N4c5cc6cc[nH]c6nc5O[C@@H]5COC[C@H]54)c3)CC2)C1` [Example 17, 2-[(11R,15S)-13,16-dioxa-2,4,10-triazatetracyclo[7.7.0.0^{3,7}.0^{11,15}]hexadeca-1(9),2,5,7-tetraen-10-yl]-4-{2-[(2S)-2-[2-(methylamino)phenyl]pyrrolidin-1-yl]-7-azaspiro[3.5]nonan-7-yl}-N-{3-nitro-4-[(oxan-4-ylmethyl)amino]benzenesulfonyl}benzamide]: the IC50 was found to be 99.5 nM in experiment [1] and 0.225 nM at Bcl-2.

`CC(C)(C#N)c1ccccc1[C@@H]1CCCN1C1CC2(CCN(c3ccc(C(=O)NS(=O)(=O)c4ccc(NCC5CCOCC5)c([N+](=O)[O-])c4)c(N4c5cc6cc[nH]c6nc5O[C@@H]5COC[C@H]54)c3)CC2)C1` [Example 19, 4-{2-[(2S)-2-[2-(1-cyano-1-methylethyl)phenyl]pyrrolidin-1-yl]-7-azaspiro[3.5]nonan-7-yl}-2-[(11R,15S)-13,16-dioxa-2,4,10-triazatetracyclo[7.7.0.0^{3,7}.0^{11,15}]hexadeca-1(9),2,5,7-tetraen-10-yl]-N-{3-nitro-4-[(oxan-4-ylmethyl)amino]benzenesulfonyl}benzamide hydrochloride]: the IC50 in experiment [1] amounted to 71.8 nM; on Bcl-2 it was 0.1 nM.

As to `CC(C)Oc1ccccc1[C@@H]1CCCN1C1CC2(CCN(c3ccc(C(=O)NS(=O)(=O)c4ccc(NCC5CCOCC5)c([N+](=O)[O-])c4)c(N4c5cc6cc[nH]c6nc5O[C@@H]5COC[C@H]54)c3)CC2)C1` [Example 20, 2-[(11R,15S)-13,16-dioxa-2,4,10-triazatetracyclo[7.7.0.0^{3,7}.0^{11,15}]hexadeca-1(9),2,5,7-tetraen-10-yl]-4-{2-[(2S)-2-(2-isopropoxyphenyl)pyrrolidin-1-yl]-7-azaspiro[3.5]nonan-7-yl}-N-{3-nitro-4-[(oxan-4-ylmethyl)amino]benzenesulfonyl}benzamide], the IC50 stood at 60.4 nM in experiment [1] and 0.299 nM on Bcl-2.

With `COC1(C)CCC(CNc2ccc(S(=O)(=O)NC(=O)c3ccc(N4CCC5(CC4)CC(N4CCC[C@H]4c4ccccc4C(C)C)C5)cc3N3c4cc5cc[nH]c5nc4O[C@@H]4COC[C@H]43)cc2[N+](=O)[O-])CC1` (stereo partly drawn) [Example 36, 4-(2-((S)-2-(2-isopropylphenyl)pyrrolidin-1-yl)-7-azaspiro[3.5]nonan-7-yl)-N-((4-((((1r,4r)-4-methoxy-4-methylcyclohexyl)methyl)amino)-3-nitrophenyl)sulfonyl)-2-((5aR,8aS)-5a,6,8,8a-tetrahydrofuro[3,4-b]pyrrolo[3′,2′:5,6]pyrido[3,2-e][1,4]oxazin-5(1H)-yl)benzamide hydrochloride], the IC50 in experiment [1] amounted to 56.4 nM; on Bcl-2 it was 0.31 nM.

Take `CO[C@]1(C)CC[C@H](CNc2ccc(S(=O)(=O)NC(=O)c3ccc(N4CCC5(CC4)CC(N4CCC[C@H]4c4ccccc4C(C)C)C5)cc3N3c4cc5cc[nH]c5nc4O[C@@H]4COC[C@H]43)cc2[N+](=O)[O-])CC1` [Example 37, 4-(2-((S)-2-(2-isopropylphenyl)pyrrolidin-1-yl)-7-azaspiro[3.5]nonan-7-yl)-N-((4-((((1s,4s)-4-methoxy-4-methylcyclohexyl)methyl)amino)-3-nitrophenyl)sulfonyl)-2-((5aR,8aS)-5a,6,8,8a-tetrahydrofuro[3,4-b]pyrrolo[3′,2′:5,6]pyrido[3,2-e][1,4]oxazin-5(1H)-yl)benzamide hydrochloride]: the IC50 in experiment [1] is 15.2 nM; on Bcl-2, 0.358 nM.

In the case of `Cc1ccccc1[C@@H]1CCCN1C1CC2(CCN(c3ccc(C(=O)NS(=O)(=O)c4ccc(NCC5(F)CCOCC5)c([N+](=O)[O-])c4)c(N4c5cc6cc[nH]c6nc5O[C@@H]5COC[C@H]54)c3)CC2)C1` [Example 38, N-((4-(((4-fluorotetrahydro-2H-pyran-4-yl)methyl)amino)-3-nitrophenyl)sulfonyl)-2-((5aR,8aS)-5a,6,8,8a-tetrahydrofuro[3,4-b]pyrrolo[3′,2′:5,6]pyrido[3,2-e][1,4]oxazin-5(1H)-yl)-4-(2-((S)-2-(o-tolyl)pyrrolidin-1-yl)-7-azaspiro[3.5]nonan-7-yl)benzamide], the IC50 in experiment [1] (RS4-11) came to 13.6 nM; at Bcl-2, 0.202 nM.

`Cc1ccccc1[C@@H]1CCCN1C1CC2(CCN(c3ccc(C(=O)NS(=O)(=O)c4ccc(NC[C@H]5COCCO5)c([N+](=O)[O-])c4)c(N4c5cc6cc[nH]c6nc5O[C@@H]5COC[C@H]54)c3)CC2)C1` [Example 39, N-((4-((((S)-1,4-dioxan-2-yl)methyl)amino)-3-nitrophenyl)sulfonyl)-2-((5aR,8aS)-5a,6,8,8a-tetrahydrofuro[3,4-b]pyrrolo[3′,2′:5,6]pyrido[3,2-e][1,4]oxazin-5(1H)-yl)-4-(2-((S)-2-(o-tolyl)pyrrolidin-1-yl)-7-azaspiro[3.5]nonan-7-yl)benzamide]: the IC50 was 49.2 nM in experiment [1] (RS4-11) and 0.19 nM on Bcl-2.

For the compound `Cc1ccccc1[C@@H]1CCCN1C1CC2(CCN(c3ccc(C(=O)NS(=O)(=O)c4ccc(NCC5CCC(C)(O)CC5)c([N+](=O)[O-])c4)c(N4c5cc6cc[nH]c6nc5O[C@@H]5COC[C@H]54)c3)CC2)C1` (stereo partly drawn) [Example 40, N-((4-((((1s,4s)-4-hydroxy-4-methylcyclohexyl)methyl)amino)-3-nitrophenyl)sulfonyl)-2-((5aR,8aS)-5a,6,8,8a-tetrahydrofuro[3,4-b]pyrrolo[3′,2′:5,6]pyrido[3,2-e][1,4]oxazin-5(1H)-yl)-4-(2-((S)-2-(o-tolyl)pyrrolidin-1-yl)-7-azaspiro[3.5]nonan-7-yl)benzamide], the IC50 in experiment [1] was determined as 34.7 nM; on Bcl-2, 0.2 nM.

On to `Cc1ccccc1[C@@H]1CCCN1C1CC2(CCN(c3ccc(C(=O)NS(=O)(=O)c4ccc(NCC5CCC(C)(O)CC5)c([N+](=O)[O-])c4)c(N4c5cc6cc[nH]c6nc5O[C@@H]5COC[C@H]54)c3)CC2)C1` (stereo partly drawn) [Example 41, N-((4-((((1r,4r)-4-hydroxy-4-methylcyclohexyl)methyl)amino)-3-nitrophenyl)sulfonyl)-2-((5aR,8aS)-5a,6,8,8a-tetrahydrofuro[3,4-b]pyrrolo[3′,2′:5,6]pyrido[3,2-e][1,4]oxazin-5(1H)-yl)-4-(2-((S)-2-(o-tolyl)pyrrolidin-1-yl)-7-azaspiro[3.5]nonan-7-yl)benzamide], for which the concentration for half-maximal inhibition (IC50) in experiment [1] came out at 14.7 nM; on Bcl-2, 0.18 nM.

On to `CC(C)Oc1ccccc1[C@@H]1CCCN1C1CC2(CCN(c3ccc(C(=O)NS(=O)(=O)c4ccc(NCC5(F)CCOCC5)c([N+](=O)[O-])c4)c(N4c5cc6cc[nH]c6nc5O[C@@H]5COC[C@H]54)c3)CC2)C1` [Example 42, N-((4-(((4-fluorotetrahydro-2H-pyran-4-yl)methyl)amino)-3-nitrophenyl)sulfonyl)-4-(2-((S)-2-(2-isopropoxyphenyl)pyrrolidin-1-yl)-7-azaspiro[3.5]nonan-7-yl)-2-((5aR,8aS)-5a,6,8,8a-tetrahydrofuro[3,4-b]pyrrolo[3′,2′:5,6]pyrido[3,2-e][1,4]oxazin-5(1H)-yl)benzamide], for which the IC50 in experiment [1] (RS4-11) amounted to 29.2 nM; on Bcl-2 it was 0.217 nM.
